Results: US9463175B2, “Antimalarial drug which contains 5-aminolevulinic acid or derivative thereof as active ingredient” (SBI Pharmaceuticals Co., Ltd., priority 2010, dated 2016)

Key:
[1] = test system: Plasmodium falciparum 3D7; experiment: Infection (proliferation) rate of Plasmodium falciparum 3D7 in random culture, Giemsa staining (Example 5); type: cell-based; settings: 48 hours
Procedure: (§1) An iron (II) chloride aqueous solution was added to 1 ml of Plasmodium falciparum 3D7 culture medium having an infection rate of 0.3% to a final concentration of 0.1, 1, 10, and 100 μM. As a control, a culture medium to which sterilized water had been added was used. Three culture media were prepared for each of the aforementioned concentrations, and a 12-well plate was used. After each culture medium had been cultured for 48 hours, the infection rate was measured by Giemsa staining. In addition, as for an ALA-added medium, an ALA chloride aqueous solution was added to the medium to a final concentration of 200 μM, and an iron (II) chloride aqueous solution was then added thereto to a final concentration of 0.1, 1, 10, and 100 μM. As described above, the culture medium was cultured for 48 hours, and the infection rate was then measured by Giemsa staining.
(§2) The infection (proliferation) rate (%) was calculated using the following formula: [(Infection rate after 48 hours−infection rate at initiation of culture)/(infection rate of control after 48 hours−infection rate at initiation of culture)]×100. It is to be noted that the infection rate at initiation of the culture was set at 0.3%.
The ratio of an increase in the infection rate caused by culture was indicated by setting a region to which neither iron nor ALA was added at 100%.

malaria parasites = settings: cited from earlier work
[2] = test system: Plasmodium falciparum 3D7; experiment: Infection rate of Plasmodium falciparum 3D7 in synchronized culture at the ring stage (Example 6); type: cell-based
Procedure: as §1, §2
According to a common method, there was prepared a Plasmodium falciparum 3D7 culture medium having an infection rate of 0.3%, which was subjected to synchronized culture at the ring stage by treating with 5% sorbitol. The infection rate was measured by the same method as that described in Example 5. The final concentration of ALA hydrochloride was set at 200 μM.

[3] = test system: chloroquine-resistant malaria parasites; experiment: Administration to a malaria patient not responding to chloroquine (Example 3); type: in vivo, human; settings: predetermined amount of chloroquine alone, body temperature kept around 38 degrees
Procedure: A predetermined amount of chloroquine was administered to a patient who developed malaria. […] They suffered from headache, vertigo and nausea, and their body temperature was kept around 38 degrees. While administering chloroquine, a single capsule of the same capsule as used in Example 1 was also administered to the patient once a day. […] After administration of the capsule for 3 days, administration was suspended.

[4] = test system: Plasmodium falciparum 3D7; experiment: Infection rate in culture medium with high starting infection rate of 2%, 8 hours culture (Example 7); type: cell-based; settings: ALA hydrochloride 200 μM + iron (II) chloride 10 μM; starting infection rate 2%; culture for 8 hours; nothing added: 3.1%
Procedure: as §1
(§3) A culture medium was prepared in the same manner as in Example 5 with the exception that 2 ml of a culture medium having an infection rate of 2% was used. To the thus prepared culture medium, iron (II) chloride (final concentration: 10 μM) and ALA hydrochloride (final concentration: 200 μM) were added, followed by culture for 8 hours. Thereafter, the infection rate was measured by Giemsa staining.

[5] = test system: Plasmodium falciparum 3D7; experiment: Infection rate in 2% culture with white LED irradiation (Example 8); type: cell-based; settings: ALA hydrochloride 200 μM; starting infection rate 2%; 8 hours culture, white LED 15 minutes, further 8 hours
Procedure: as §3
ALA hydrochloride was added to a final concentration of 200 μM to a culture medium that had been prepared in the same manner as in Example 7. The obtained mixture was cultured for 8 hours, and thereafter, irradiated with white LED for 15 minutes. The resultant was further cultured for 8 hours, and the infection rate was then measured by Giemsa staining.

## NCC(=O)CCC(=O)O [ALA, 5-aminolevulinic acid]
[1]; ALA 200 μM + iron (II) chloride 0.1 μM
  Infection Rate (%) by Random Culture: 88%
[1]; ALA 200 μM + iron (II) chloride 1 μM
  Infection Rate (%) by Random Culture: 86%
[1]; ALA 200 μM + iron (II) chloride 10 μM
  Infection Rate (%) by Random Culture: 59%
[1]; ALA 200 μM + iron (II) chloride 100 μM
  Infection Rate (%) by Random Culture: 57%
[1]; ALA 200 μM, no iron (II) chloride
  Infection Rate (%) by Random Culture: 96%
Malaria parasites; ALA 0.2 mM in medium, light irradiation from projector lamp of 410 W for 30 minutes
  parasiticidal effect of PDT: sufficient parasiticidal effect
Malaria parasites; illumination with ordinary indoor light
  ALA concentration in medium needed for PDT therapy to exhibit some effect: 2 mM
[2]; ALA hydrochloride 200 μM + iron (II) chloride 0.1 μM
  Infection Rate by Synchronized Culture (Ring Stage): 69%
[2]; ALA hydrochloride 200 μM + iron (II) chloride 1 μM
  Infection Rate by Synchronized Culture (Ring Stage): 58%
[2]; ALA hydrochloride 200 μM + iron (II) chloride 10 μM
  Infection Rate by Synchronized Culture (Ring Stage): 51%
[2]; ALA hydrochloride 200 μM + iron (II) chloride 100 μM
  Infection Rate by Synchronized Culture (Ring Stage): 5%
[2]; ALA hydrochloride 200 μM, no iron (II) chloride
  Infection Rate by Synchronized Culture (Ring Stage): 95%

## [Cl][Fe][Cl] [iron (II) chloride, reference compound]
[1]; without ALA, iron (II) chloride 0.1 μM, no iron/no ALA = 100%
  Infection Rate (%) by Random Culture: 98%
[1]; without ALA, iron (II) chloride 1 μM, no iron/no ALA = 100%
  Infection Rate (%) by Random Culture: 97%
[1]; without ALA, iron (II) chloride 10 μM, no iron/no ALA = 100%
  Infection Rate (%) by Random Culture: 95%
[1]; without ALA, iron (II) chloride 100 μM, no iron/no ALA = 100%
  Infection Rate (%) by Random Culture: 82%

## CCN(CC)CCCC(C)Nc1ccnc2cc(Cl)ccc12 (stereo not shown) [chloroquine]
[3]
  effect on malaria: sufficient effects could not be obtained

## Cl.NCC(=O)CCC(=O)O [ALA hydrochloride]
[4]
  infection rate: 0.47%
[5]
  infection rate: 1.8%
